Test results as given in PMC7999199, “Novel Cationic Meso-Arylporphyrins and Their Antiviral Activity against HSV-1” (Pharmaceuticals, 2021).

Assays:
HSV-1 (strain RD) = test: Virucidal effect on HSV-1: virus incubated 2 h with compound, residual titer by CPE in Vero cells; assay type: cell-based, herpes simplex virus type 1; settings: for IC50: Human alphaherpesvirus 1, Vero, HSV-1
Procedure: Next, the virucidal effect of the drugs on HSV-1 in PBS and Pluronic F-127 was studied, in accordance with CC50 (Figure 5). The virucidal activity tests were performed by incubating HSV-1 with different concentrations of 3a,b and TMePyP for 2 h at a temperature of 36.8 °C and 5% CO2. Untreated viral suspensions were used as a control. Then, samples were added to a Vero culture seeded in 96-well plates, and the residual virus content was evaluated by developing a cytopathic effect on the fourth day of cultivation.
HSV-1 at tenfold dilutions DMEM-1% FCS (900 µL) was incubated with different concentration of the compounds (100 µL) at the final concentration ranging from 3 µM to 100 µM in DMEM-1% FCS or without of compound, each sample in volume 1 mL, for 2 h at 36.8 °C in 5% CO2 atmosphere. After treatment, the samples were applied to the Vero cell (the day before, cells were seeded at the rate of 15,000 cells/well in […] DMEM-5% FCS in 96-well plates) monolayers in 96-well plates (100 µL/well), and, after 4 days of cultivation at 36.8 °C in 5% CO2 atmosphere, titers were calculated based on the development of CPE, and the inhibitory activity of each compounds was calculated in relation to the control (HSV-1 without compounds). Data are reported as means of three independent assays, each run in triplicate.
Figure 5 Virucidal activity of 3a (a), 3b (b), TMePyP (c) dissolved in PBS and Pluronic F-127 regarding HSV-1. The results are presented as the virus titer percentage, with the porphyrin regarding the virus titer in control, which was taken as 100%. Each point represents the mean ± deviation of three experiments with three replicates.
Fig. 15S. Virucidal activity of 3a (A), 3b (B), TMePyP (C) compounds dissolved in PBS and Pluronic F127 regarding to HSV-1. HSV-1 at tenfold dilutions DMEM-1%FCS was incubated with different concentration of the compounds ranging from 3 µM/L to 100 µM/L in DMEM-1% FCS or without of compound , each sample in volume 1mL, for 2 hours at 36.8°C in 5% CO 2 atmosphere. After treatment the samples were applied to the Vero DMEM-5%FCS in 96 wells plates) monolayers in 96 wells plates (100 µL/well). and after 4 days of cultivation at 36.8 °C in 5% CO 2 atmosphere titers were calculated based on the development of CPE and the inhibi-tory activity of each compounds was calculated in relation to the control (HSV -1 without compounds). Data are reported as means of three independent assays, each run in tripli cate. The results were processed using the GraphPad Prism 5 program. […]

[1] = test system: HSV-1 replication in Vero cells; test: Influence of the compounds on HSV-1 virus yield during infection of Vero cells (early/late replication stages); assay type: cell-based, herpes simplex virus type 1; settings: for stages of HSV-1 replication affected: Vero cells, MOI 0.1; for effect on HSV-1 replication: simultaneous addition with the virus
Procedure: Porphyrin’s antiviral action was then determined in terms of their effect on the HSV-1 replication stages in Vero cells. A two-part experiment was conducted to evaluate the influence of the obtained compounds on the early or late stages of replication (Figure 6). First, the effect of porphyrins on the initial stages of reproduction was estimated. Thus, HSV-1 at MOI 0.1 was adsorbed on Vero cells in a medium containing the studied porphyrin; then the cell monolayers were washed from the nonadsorbed virus, and porphyrins of the same concentration were introduced into the plate (1) (Vero Cells + HSV-1 + Porphyrin, left arrow. Figure 6), or the cell monolayers were washed from the nonadsorbed virus, and the medium without the test compound was introduced into the cell monolayers microwell plate (2) (Porphyrin + HSV-1 + Porphyrin medium, right arrow. Figure 6).
The influence of porphyrin antiviral activity on the HSV-1 postadsorption stages was simultaneously evaluated in this experiment. The studied compounds were introduced after HSV-1 adsorption on Vero cells and washing of nonadsorbed virus particles (3) (Vero Cells +HSV-1, left arrow. Figure 6) or, after virus adsorption and nonadsorbed virus particles washing, only the medium was introduced (control of virus reproduction) (4) (Vero Cells +HSV-1, right arrow. Figure 6). After the formation of a pronounced cytopathic effect of the virus in control cultures (48 h of cultivation), the virus infection activity of all the samples was determined by titration in a Vero cell culture (Figure 7).
Four variants were used to test compound efficiency in controlling development of infection in Vero cells. The Vero cells were seeded in 24-well plate in 1 mL of DMEM-5% FCS. (1) The cell monolayers were treated simultaneously with HSV-1 (MOI 0.1) in DMEM-1% FCS (900 µL) and investigated compounds in DMEM-1% FCS (100 µL) for 2 h at 36.8 °C in 5% CO2 atmosphere; then the cell monolayers were washed from the nonadsorbed virus and treated with 900 µL of DMEM-1%FCS and the same concentrations of compounds (100 µL). (2) The cell monolayers were treated simultaneously with HSV-1 (MOI 0.1) DMEM-1% FCS (900 µL) and compounds DMEM-1%FCS (100 µL) for 2 h at 36.8 °C in 5% CO2 atmosphere, and then the cell monolayers were washed from the nonadsorbed virus, after which only DMEM-1% FCS (1 mL) was added. (3) The cell monolayers were treated with HSV-1 (MOI 0.1) DMEM-1% FCS (900 µL) and DMEM-1% FCS (100 µL) for 2 h at 36.8 °C in 5% CO2 atmosphere and washed from the nonadsorbed virus; then DMEM-1% FCS (900 µL) and the same compounds in DMEM-1% FCS (100 µL) were added. (4) Control: the cell monolayers were treated with HSV-1 (MOI 0.1) in DMEM-1% FCS (900 µL), and DMEM-1% FCS (100 µL) was added for 2 h at 36.8 °C in 5% CO2 atmosphere and washed from the nonadsorbed virus, and then DMEM-1% FCS (1 mL) was added. In all variants, the treated cells were then incubated at 36.8 °C in 5% CO2 atmosphere.
After the development of a cytopathic effect in control cultures (HSV-1 + medium, 48 h), the virus content was determined in samples of the culture medium by applying ten-fold dilutions (100 µL) on a monolayers of Vero cells in wells of 96-well plates. After three days, virus titers were counted, and the percentage of inhibition regarding the titer of the virus in the control, which was taken as 100%, was determined. The results were presented as the average of three experiments of four replays.
Figure 7 Inhibitory effect of porphyrins on the HSV-1 replication. The Vero cells were treated with compounds 3a (100 µM) (a), 3b (12 µM and 6 µM) (b) and TMePyP (50 µM, 25 µM and 12.5 µM) (c) simultaneously with HSV-1 (MI 0.1) or after HSV-1 (MI 0.1) adsorption. The results are presented as the percentage of the virus titer with porphyrin relative to its titer in the control (without porphyrin), which was taken as 100%. Each bar represents the mean ± deviation. […]

[2] = Pluronic F-127 (F127) micellar formulation

With `O=C(CC[n+]1ccccc1)Oc1ccc(-c2c3nc(c(-c4ccc(OC(=O)CC[n+]5ccccc5)cc4)c4ccc([nH]4)c(-c4ccc(OC(=O)CC[n+]5ccccc5)cc4)c4nc(c(-c5ccc(OC(=O)CC[n+]6ccccc6)cc5)c5ccc2[nH]5)C=C4)C=C3)cc1` [3a] the IC50 (HSV-1 (strain RD); [2]) was 99.8 µM, the “concentration showing a virucidal effect” value (HSV-1 (strain RD); PBS and Pluronic F-127, only at the maximum concentration) was 100 µM and the “stages of HSV-1 replication affected” value [1] was “acts on both the initial and postadsorption stages of virus replication”. The “effect on HSV-1 reproduction” value ([1]; compound only at the cell infection stage (3a + HSV-1 + media), 100 µM, MOI 0.1, 48 h) was “did not significantly suppress the reproduction of the virus” and the “effect on HSV-1 reproduction” value ([1]; compound with virus and after washing (3a + HSV-1 + 3a) or post-infection (HSV-1 + 3a), 100 µM, MOI 0.1, 48 h) was “suppressed the reproduction of the virus”.
For `C[n+]1ccc(-c2c3nc(c(-c4cc[n+](C)cc4)c4ccc([nH]4)c(-c4cc[n+](C)cc4)c4nc(c(-c5cc[n+](C)cc5)c5ccc2[nH]5)C=C4)C=C3)cc1` [TMePyP, 5,10,15,20-tetrakis(1-methyl-4-pyridinio)porphyrin tetraiodide, reference compound], the IC50 (HSV-1 (strain RD); [2]) was 13.3 µM, the IC50 (HSV-1 (strain RD); dissolved in PBS) was 2.3 µM and the “stages of HSV-1 replication affected” value [1] was “affected both the initial and late stages of virus replication”. The “effect on HSV-1 reproduction” value ([1]; introduced at the stage of virus adsorption, 12 μM) was “did not suppress the HSV-1 reproduction”, the “effect on HSV-1 replication” value ([1]; 25 μM) was “completely suppressed its replication” and the “effect on HSV-1 replication” value ([1]; 50 μM) was “completely suppressed its replication”.
